“And” between values parts separate entries of the source, which are not always exact repeats. Equal values may be shown once.
What was measured:
Peptide G = assay: Specificity analysis for the TCBL carrier, ELISA plates coated with Peptide G; type: in vivo, Mice; conditions: for A 490 1:200 dilution on plates coated with Peptide G: Average
Protocol: (§1) Mice in groups (5-10 animals per group as designated) are immunized with the LEAPS constructs (25 μg/dose) of SEQ ID NO's:37, 38 and 39, in 0.2 mL emulsified 1:1 with adjuvant (Seppic's ISA-51 or Corixa's microfluidized MPL S/E) on days 0 and 14. Mice are evaluated by Delayed Type of Hypersensitivity (DTH) by inoculation on day 26 with 20 μl of a solution of saline or mH (SEQ ID NO:6) (25 μg in saline) in the left or right ear respectively. The DTH response is determined by measurement of the ear thickness 48 hours later and expressed as increase in ear thickness (mm) of experimental ear compared to that of the control ear. Individual animal sera are collected for measurement of antibody on day 28, 42, 63 and 77. Sera from individual animals and group pools are evaluated for specific anti-mH antibody, for total antibody, IgG1, IgG2a and IgG3 antibody isotype and cross clade titer at selected time points as indicated.
A specificity analysis for the TCBL or KLH carrier for pools of day 42 test bleedings from the G-mH, G′-mH and mH/KLH, using either MPL S/E or ISA51 as adjuvant, was carried out (all sera assayed at a dilution of 1:200) and the results are shown in Table 5. […] This observation is especially significant for vaccines used on a repetitive basis, such as, either a vaccine that requires more frequent intervals between boosters for maintenance of cellular reactivity or as a therapeutic vaccine.

modified HGP-30 [1] = assay: Delayed Type Hypersensitivity (DTH) ear thickness response with antisera depletion of CD4 or CD8 cells; type: in vivo, Mice
Protocol: as §1
Select immunoglobulin preparations were obtained from Dr. Stephen Hoffmann, Malaria Program, U.S. Navy. […] This allows one to determine some parts of the nature of various cellular (e.g., T-cell) involvement in the early stage of immune system response with the LEAPS peptide-constructs. It is recognized, however, that this is only a temporary event since new cells are continuously being developed from stem cells and the animals become resistant to the reagents.
The animals are pretreated with the antisera as indicated for 5 days before the initial immunization with peptide-construct having SEQ ID NO:37 or SEQ ID NO:39 on […]. No pretreatment is done before the booster immunization on day 14 or DTH on day 26-28. The mice are then inoculated with the test antigen or saline (control) on day 26 in the left and right ears, respectively, and the DTH response is measured on day 28. The difference between the values for the test and saline control ears is calculated for each group of five animals along with the standard error of the mean (sem) and the results are plotted (see FIG. 1). Also shown in FIG. 1 are values for the untreated animals and animals immunized on day 14 only.
The DTH (Delayed Type Hypersensitivity) data is statistically significant with a t-test of 0.05 for SEQ ID NO:39 and anti-CD8. The DTH for pretreatment of SEQ ID NO:37 immunized mice with anti-CD4 was just above the cutoff limit for statistical significance due to a weaker DTH response and small group size.

modified HGP-30 [2] = assay: ELISA antibody screening of sera of immunized mice on modified HGP-30; type: in vivo; conditions: for ELISA test antigen Modified HGP-30: day 42 test bleeding
B Clade = assay: ELISA cross clade recognition by sera of immunized mice, B Clade; type: in vivo; conditions: for ELISA test antigen B Clade: day 42 test bleeding
[3] = Day 14 Injection Only (immunized with construct on day 14 only), average of group of 5 mice
[4] = Treatment Anti CD4, daily for 5 days before immunization, average of group (5 mice)
[5] = Treatment Anti CD8, daily for 5 days before immunization, average of group of 5 mice
[6] = Treatment None, average of group (5 mice), ISA 51 adjuvant
[7] = Treatment Normal rat IgG, daily for 5 days before immunization, average of group (5 mice)
[8] = day 63 test bleeding, sera 1:200, individual mouse

DGQ EEK AGV VST GLI GGG ATL YSV HQR IDV KDT KEA LEK IEE EQN KS (DGQEEKAGVVSTGLIGGGYLSGANLNL) [SEQ ID NO: 57, Peptide G′ linked by GGG spacer to modified HGP-30 (mH)]
A 490 1:200 dilution on plates coated with Peptide G (Peptide G; day 42, first set of groups): 0.080 A 490 | A 490 1:200 dilution on plates coated with Peptide G (Peptide G; day 42, second set of groups): 0.062 A 490 | Reactivity toward the delivery vehicle TCBL (Peptide G; day 42 sera at 1:200, Table 5, in words): minimal reactivity | Left Ear thickness, inoculated day 26 with HGP-30, measured after 48 hours (modified HGP-30 [1]; [3]): 0.234 mm | Right Ear thickness, inoculated day 26 with saline, measured after 48 hours (modified HGP-30 [1]; [3]): 0.222 mm | DTH % increase (L-R)/R (modified HGP-30 [1]; Day 14 Injection Only, average of group of 5 mice): 5.10% | Left Ear thickness, inoculated day 26 with HGP-30, measured after 48 hours (modified HGP-30 [1]; [4]): 0.252 mm | Right Ear thickness, inoculated day 26 with saline, measured after 48 hours (modified HGP-30 [1]; [4]): 0.237 mm | DTH % increase (L-R)/R (modified HGP-30 [1]; Treatment Anti CD4, average of group (5 mice)): 6.10% | Left Ear thickness, inoculated day 26 with HGP-30, measured after 48 hours (modified HGP-30 [1]; [5]): 0.290 mm | Right Ear thickness, inoculated day 26 with saline, measured after 48 hours (modified HGP-30 [1]; [5]): 0.232 mm | DTH % increase (L-R)/R (modified HGP-30 [1]; Treatment Anti CD8, average of group of 5 mice): 25.00% | DTH % increase (L-R)/R (modified HGP-30 [1]; Treatment None, average of group (5 mice)): 22.10% | Left Ear thickness, inoculated day 26 with HGP-30, measured after 48 hours (modified HGP-30 [1]; [6]): 0.274 mm | Right Ear thickness, inoculated day 26 with saline, measured after 48 hours (modified HGP-30 [1]; [6]): 0.224 mm | Left Ear thickness, inoculated day 26 with HGP-30, measured after 48 hours (modified HGP-30 [1]; [7]): 0.278 mm | Right Ear thickness, inoculated day 26 with saline, measured after 48 hours (modified HGP-30 [1]; [7]): 0.232 mm | DTH % increase (L-R)/R (modified HGP-30 [1]; Treatment Normal rat IgG, average of group (5 mice)): 19.90% | Type of cells required for a DTH response (modified HGP-30 [1]; cell specific antisera as depletion reagent for the primary immunization (FIG. 1)): requires the presence and presumably activation of CD4+ but not CD8+ cells | A 490 1:200 dilution on plates coated with modified HGP-30 (modified HGP-30 [2]; day 42, first set of groups (animals 4637-4648, 4674-4678), individual animal): 2.178 A 490 and 1.411 A 490 and 2.314 A 490 and 2.555 A 490 and 2.404 A 490 and 2.273 A 490 | A 490 1:200 dilution on plates coated with modified HGP-30 (modified HGP-30 [2]; day 42, first set of groups, Average): 2.189 A 490 | A 490 1:200 dilution on plates coated with modified HGP-30 (modified HGP-30 [2]; day 42, second set of groups (animals 4662-4673, 4679-4683), individual animal): 1.968 A 490 and 1.422 A 490 and 1.755 A 490 and 2.450 A 490 and 2.403 A 490 and 1.399 A 490 | A 490 1:200 dilution on plates coated with modified HGP-30 (modified HGP-30 [2]; day 42, second set of groups, Average): 1.899 A 490 | ELISA test antigen Modified HGP-30 (modified HGP-30 [2]; group (A), Group Average): 2.433 | ELISA test antigen Modified HGP-30 (modified HGP-30 [2]; group (A), individual mouse): 2.307 and 1.589 and 2.432 and 2.867 and 2.627 and 2.780 | ELISA test antigen Modified HGP-30 (modified HGP-30 [2]; group (B), Group Average): 2.672 | ELISA test antigen Modified HGP-30 (modified HGP-30 [2]; group (B), individual mouse): 2.330 and 2.213 and 2.534 and 3.358 and 3.030 and 2.571 | ELISA signal on modified HGP-30 (modified HGP-30 [2]; [8]): 2.737 and 2.471 and 2.569 and 2.093 and 2.512 and 3.115 and 3.153 and 2.922 and 2.236 and 2.534 | ELISA test antigen B Clade (B Clade; group (A), Group Average): 0.346 | ELISA test antigen B Clade (B Clade; group (A), individual mouse): 0.271 and 0.000 and 0.036 and 0.507 and 0.187 and 1.074 | ELISA test antigen B Clade (B Clade; group (B), Group Average): 1.410 | ELISA test antigen B Clade (B Clade; group (B), individual mouse): 2.348 and 0.496 and 1.799 and 1.228 and 2.244 and 0.349 | ELISA signal on B Clade (B Clade; [8]): 1.667 and 0.160 and 0.099 and 0.236 and 1.547 and 0.470 and 1.138 and 0.994 and 0.000 and 0.505

— patent US6951647B2, “T cell binding ligand peptides and method of inducing a cellular immune response” (Cel-Sci Corporation, priority 2001, dated 2005)
